Results from PubChem BioAssay AID2060509 (Molecular Pharmacology Branch, DTP, NCI, 2025).

System: 485176-168-R4-J1-PDC spheroids with HUVEC/MSC, viability
Test: Anticancer human tumor 485176-168-R4-J1-PDC patient-derived pancreatic adenocarcinoma cell line growth inhibition [GQUAD]
Conditions: for IC50: curve of first compound; for viability, T/C: stronger effect = lower value; active = viability on the fitted dose curve at most 10% of control; inactive = the rest
Method in brief: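 Multi-cell-type spheroids of tumor cells with HUVEC and mesenchymal stem cells, treated with drug combinations. Concentrations descend in half-log steps from near clinical Cmax, or from 10 microM where Cmax is unknown; viability read-out.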

[1] = second compound 0.0316 µM, first compound 0.0316 µM
[2] = second compound 0.0316 µM, first compound 0.1 µM
[3] = second compound 0.0316 µM, first compound 0.316 µM
[4] = second compound 0.0316 µM, first compound 1 µM
[5] = second compound 0.0316 µM, first compound 3.16 µM
[6] = second compound 0.0316 µM, first compound 10 µM
[7] = second compound 0.1 µM, first compound 0.0316 µM
[8] = second compound 0.1 µM, first compound 0.1 µM
[9] = second compound 0.1 µM, first compound 0.316 µM
[10] = second compound 0.1 µM, first compound 1 µM
[11] = second compound 0.1 µM, first compound 3.16 µM
[12] = second compound 0.1 µM, first compound 10 µM
[13] = second compound 0.316 µM, first compound 0.0316 µM
[14] = second compound 0.316 µM, first compound 0.1 µM
[15] = second compound 0.316 µM, first compound 0.316 µM
[16] = second compound 0.316 µM, first compound 1 µM
[17] = second compound 0.316 µM, first compound 3.16 µM
[18] = second compound 0.316 µM, first compound 10 µM
[19] = second compound 1 µM, first compound 0.0316 µM
[20] = second compound 1 µM, first compound 0.1 µM
[21] = second compound 1 µM, first compound 0.316 µM
[22] = second compound 1 µM, first compound 1 µM
[23] = second compound 1 µM, first compound 3.16 µM
[24] = second compound 1 µM, first compound 10 µM
[25] = second compound 3.16 µM, first compound 0.0316 µM
[26] = second compound 3.16 µM, first compound 0.1 µM
[27] = second compound 3.16 µM, first compound 0.316 µM
[28] = second compound 3.16 µM, first compound 1 µM
[29] = second compound 3.16 µM, first compound 3.16 µM
[30] = second compound 3.16 µM, first compound 10 µM
[31] = second compound 10 µM, first compound 0.0316 µM
[32] = second compound 10 µM, first compound 0.1 µM
[33] = second compound 10 µM, first compound 0.316 µM
[34] = second compound 10 µM, first compound 1 µM
[35] = second compound 10 µM, first compound 3.16 µM
[36] = second compound 10 µM, first compound 10 µM
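Note: spheroids exposed to compounds for seven days before readout.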
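Throughout, for viability, T/C: percent viability relative to DMSO vehicle control wells as 100%.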

COc1ncnc(C2CC2)c1-c1ncc2cnn(Cc3ccc(-c4nc(C(F)(F)F)cn4C(C)C)cc3)c2n1 + Cc1cnc(CNC(=O)c2c(=O)c3ccc(N4CCCN(C)CC4)nc3n3c2sc2ccccc23)cn1
< 31.6 nM: IC50 (second compound 1 µM) | IC50 (second compound 3.16 µM) | IC50 (second compound 10 µM)
inactive: viability, T/C [1] 102% | viability, T/C [2] 83.6% | viability, T/C [3] 88.9% | viability, T/C [4] 89.7% | viability, T/C [5] 107% | viability, T/C [6] 83.7% | viability, T/C [7] 77.3% | viability, T/C [8] 86.8% | viability, T/C [9] 76.8% | viability, T/C [10] 66.2% | viability, T/C [11] 67% | viability, T/C [12] 81% | viability, T/C [13] 54.6% | viability, T/C [14] 65.4% | viability, T/C [15] 56.4% | viability, T/C [16] 73.7% | viability, T/C [17] 61.6% | viability, T/C [18] 62.9% | viability, T/C [19] 50.4% | viability, T/C [20] 44.1% | viability, T/C [21] 57.7% | viability, T/C [22] 52.5% | viability, T/C [23] 58.3% | viability, T/C [24] 54.9% | viability, T/C [25] 45.1% | viability, T/C [26] 47.6% | viability, T/C [27] 47% | viability, T/C [28] 40.4% | viability, T/C [29] 43.8% | viability, T/C [30] 47% | viability, T/C [31] 36.1% | viability, T/C [32] 47.7% | viability, T/C [33] 40.3% | viability, T/C [34] 34.4% | viability, T/C [35] 40.5% | viability, T/C [36] 39.6%
> 10000 nM: IC50 (second compound 0.0316 µM) | IC50 (second compound 0.1 µM) | IC50 (second compound 0.316 µM)

CC(C)(O)C1CCC(Nc2ccc3ncc(-c4cccc(C(F)(F)F)c4)n3n2)CC1 (centres undefined) + Cc1[nH]c2ccc(F)cc2c1-c1nc2c3cccnc3c3ncccc3c2[nH]1
2760 nM: IC50 (second compound 3.16 µM)
2560 nM: IC50 (second compound 10 µM)
inactive: viability, T/C [1] 80.2% | viability, T/C [2] 110% | viability, T/C [3] 84.5% | viability, T/C [4] 81.3% | viability, T/C [5] 57.7% | viability, T/C [6] 54.7% | viability, T/C [7] 93.2% | viability, T/C [8] 89.3% | viability, T/C [9] 86.8% | viability, T/C [10] 88.4% | viability, T/C [11] 61% | viability, T/C [12] 59.9% | viability, T/C [13] 93.6% | viability, T/C [14] 100% | viability, T/C [15] 86.8% | viability, T/C [16] 82.3% | viability, T/C [17] 58% | viability, T/C [18] 49.1% | viability, T/C [19] 82.9% | viability, T/C [20] 93.1% | viability, T/C [21] 108% | viability, T/C [22] 77.6% | viability, T/C [23] 47.3% | viability, T/C [24] 40.5% | viability, T/C [25] 76.9% | viability, T/C [26] 83.7% | viability, T/C [27] 88.6% | viability, T/C [28] 78.6% | viability, T/C [29] 46.2% | viability, T/C [30] 33.1% | viability, T/C [31] 92% | viability, T/C [32] 55.6% | viability, T/C [33] 70.3% | viability, T/C [34] 75.3% | viability, T/C [35] 40.3% | viability, T/C [36] 29.5%
8530 nM: IC50 (second compound 0.316 µM)
> 10000 nM: IC50 (second compound 0.0316 µM) | IC50 (second compound 0.1 µM)
2590 nM: IC50 (second compound 1 µM)
